The target in assay [1] is T1, human mAChR M1 (Homo sapiens, UniProt P11229).
T1 construct: host or cells: CHO-K1 cells (ATCC), stably transfected using Lipofectamine2000
T1 sequence (P11229 1-460): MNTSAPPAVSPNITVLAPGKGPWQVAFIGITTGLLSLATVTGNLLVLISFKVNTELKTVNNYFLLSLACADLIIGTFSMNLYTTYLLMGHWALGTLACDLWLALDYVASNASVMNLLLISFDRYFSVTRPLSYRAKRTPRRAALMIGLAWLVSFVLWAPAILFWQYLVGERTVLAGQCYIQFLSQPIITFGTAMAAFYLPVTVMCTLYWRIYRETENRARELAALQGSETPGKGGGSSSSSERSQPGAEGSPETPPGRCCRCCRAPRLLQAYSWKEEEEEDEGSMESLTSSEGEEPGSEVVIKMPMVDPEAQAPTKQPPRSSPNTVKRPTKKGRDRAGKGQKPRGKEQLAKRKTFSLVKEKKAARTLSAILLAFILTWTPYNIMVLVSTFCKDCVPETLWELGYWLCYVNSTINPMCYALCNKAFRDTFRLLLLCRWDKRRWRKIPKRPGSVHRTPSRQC
Description: mAChR M1 cell-based functional assay (calcium mobilization), PAM activity: increase in the EC20 acetylcholine response. Conditions: CHO-K1 cells expressing hM1; potentiation of EC20 acetylcholine response. The essentials: (§1)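 Fluorescence ratio calcium read-out (Fluo-4 AM, FDSS 6000) in human M1-expressing CHO-K1 cells. Agonist activity taken as concentration-dependent rise after compound addition; potentiation as enhancement of a subsequent EC20 acetylcholine challenge. Curves from 11-point threefold dilutions fitted by four-parameter logistic; Emax expressed versus acetylcholine maximum.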
On the technique in general: Calcium assays in cells follow changes in intracellular calcium, usually with a dye or a luminescent sensor.

In assay [2] the target is T1, human mAChR M1. Description: mAChR M1 cell-based functional assay (calcium mobilization), agonist activity upon compound addition. Conditions: CHO-K1 cells expressing hM1; for EC50: compound alone, before acetylcholine addition; for Emax: relative to the maximum for acetylcholine. The essentials:
as §1

SMILES strings stand for the structures.

In general, EC50 refers to the concentration at which the effect is half-maximal. For orientation: Emax means the size of the effect at its maximum, as opposed to the concentration needed. Take `Cn1cc2c(-c3cc(F)c(Cn4cc(C(=O)N[C@H]5CCOC[C@@H]5O)c5nccn5c4=O)c(F)c3)cccc2n1` [Compound B18, 6-(2,6-difluoro-4-(2-methyl-2H-indazol-4-yl)benzyl)-N-((3R,4S)-3-hydroxytetrahydro-2H-pyran-4-yl)-5-oxo-5,6-dihydroimidazo[1,2-c]pyrimidine-8-carboxamide]: in assay [1], the EC50 was found to be 0.093 µM and the maximal response (Emax) amounted to 84%. Besides, in assay [2], the EC50 amounted to 5.27 µM and the Emax was 24%.

In the case of `Cn1ccc(-c2ccc(Cn3cc(C(=O)N[C@H]4CCCC[C@@H]4O)c4nccn4c3=O)c(F)c2)n1` [Compound B2, 6-(2-fluoro-4-(1-methyl-1H-pyrazol-3-yl)benzyl)-N-((1S,2S)-2-hydroxycyclohexyl)-5-oxo-5,6-dihydroimidazo[1,2-c]pyrimidine-8-carboxamide], in assay [1], the half-maximal effective concentration (EC50) amounted to 0.096 µM and the Emax worked out at 68%. Further, in assay [2], the concentration giving a half-maximal response (EC50) is 3.7 µM and the Emax is 60%.

Consider `O=C(N[C@H]1CCOC[C@@H]1O)c1cn(Cc2c(F)cc(-c3cncs3)cc2F)c(=O)c2cccnc12` [Compound A49, 6-(2,6-Difluoro-4-(thiazol-5-yl)benzyl)-N-((3R,4S)-3-hydroxytetrahydro-2H-pyran-4-yl)-5-oxo-5,6-dihydro-1,6-naphthyridine-8-carboxamide], for which, in assay [1], the EC50 was determined as 0.98 µM and the Emax worked out at 65%. Also, in assay [2], the concentration giving a half-maximal response (EC50) is more than 10 µM and the Emax is less than 5%.

On to `Cn1ccc(-c2ccc(Cn3cc(C(=O)N[C@H]4CCOC[C@@H]4O)c4ncccc4c3=O)c(F)c2)n1` [Compound A1, 6-(2-Fluoro-4-(1-methyl-1H-pyrazol-3-yl)benzyl)-N-((3R,4S)-3-hydroxytetrahydro-2H-pyran-4-yl)-5-oxo-5,6-dihydro-1,6-naphthyridine-8-carboxamide], for which the EC50 in assay [1] came to 0.48 µM; in assay [2] it was 7.9 µM. The maximum response (Emax) in assay [1] came out at 90%; in assay [2], 20%.

Consider `Cc1cn2c(=O)n(Cc3c(F)cc(-c4cccc5nn(C)cc45)cc3F)cc(C(=O)N[C@H]3CCCC[C@@H]3O)c2n1` [Compound B30, 6-(2,6-difluoro-4-(2-methyl-2H-indazol-4-yl)benzyl)-N-((1S,2S)-2-hydroxycyclohexyl)-2-methyl-5-oxo-5,6-dihydroimidazo[1,2-c]pyrimidine-8-carboxamide], for which, in assay [1], the EC50 was found to be 5.89 µM and the Emax came to 27%. Besides, in assay [2], the concentration for a half-maximal effect (EC50) is more than 10 µM and the Emax is less than 5%.

Take `Cc1cnn(C)c1-c1ccc(Cn2cc(C(=O)N[C@H]3CCCC[C@@H]3O)c3nccn3c2=O)c(F)c1` [Compound B35, 6-(4-(1,4-dimethyl-1H-pyrazol-5-yl)-2-fluorobenzyl)-N-((1S,2S)-2-hydroxycyclohexyl)-5-oxo-5,6-dihydroimidazo[1,2-c]pyrimidine-8-carboxamide]: in assay [1], the EC50 is 7.02 µM and the maximal effect (Emax) was determined as 44%. In addition, in assay [2], the EC50 was more than 10 µM and the maximal effect (Emax) is less than 5%.

`Cn1nccc1-c1ccc(Cn2cc(C(=O)N[C@H]3CCC[C@@H]3O)c3nccn3c2=O)c(F)c1` [Compound B33, 6-(2-fluoro-4-(1-methyl-1H-pyrazol-5-yl)benzyl)-N-((1S,2S)-2-hydroxycyclopentyl)-5-oxo-5,6-dihydroimidazo[1,2-c]pyrimidine-8-carboxamide]: the EC50 in assay [1] is 2.23 µM; in assay [2] it was more than 10 µM. Further, the Emax in assay [1] was 57%; in assay [2], less than 5%.

For the compound `Cn1cc(-c2ccc(Cn3cc(C(=O)N[C@@H]4CC[C@H]4O)c4nccn4c3=O)c(F)c2)cn1` [Compound B8, 6-(2-fluoro-4-(1-methyl-1H-pyrazol-4-yl)benzyl)-N-((1R,2R)-2-hydroxycyclobutyl)-5-oxo-5,6-dihydroimidazo[1,2-c]pyrimidine-8-carboxamide], in assay [1], the EC50 stood at 2 µM. Also, the maximal response (Emax) in assay [1] came out at 72%; in assay [2], 29%.

In the case of `Cc1cn2c(=O)n(Cc3ccc(-c4cnn(C)c4)cc3F)cc(C(=O)N[C@H]3CCOC[C@@H]3O)c2n1` [Compound B23, 6-(2-Fluoro-4-(1-methyl-1H-pyrazol-4-yl)benzyl)-N-((3R,4S)-3-hydroxytetrahydro-2H-pyran-4-yl)-2-methyl-5-oxo-5,6-dihydroimidazo[1,2-c]pyrimidine-8-carboxamide], in assay [1], the EC50 was found to be 7.85 µM and the maximum response (Emax) amounted to 39%. In addition, in assay [2], the concentration giving a half-maximal response (EC50) is more than 10 µM and the maximal effect (Emax) was less than 5%.

For the compound `Cn1cc2c(-c3cc(F)c(Cn4cc(C(=O)NCC5CCCO5)c5occc5c4=O)c(F)c3)cccc2n1` (centres unmarked) [Compound D25, 5-(2,6-difluoro-4-(2-methyl-2H-indazol-4-yl)benzyl)-4-oxo-N-((tetrahydrofuran-2-yl)methyl)-4,5-dihydrofuro[3,2-c]pyridine-7-carboxamide], the 50% effective concentration (EC50) in assay [1] and in assay [2] was more than 10 µM in each case. Further, the maximal response (Emax) in assay [1] is 53%; in assay [2], less than 5%.

In the case of `Cn1cc(-c2ccc(Cn3cc(C(=O)NCC(C)(C)O)c4nccnc4c3=O)c(F)c2)cn1` [Compound A80, 6-(2-fluoro-4-(1-methyl-1H-pyrazol-4-yl)benzyl)-N-(2-hydroxy-2-methylpropyl)-5-oxo-5,6-dihydropyrido[3,4-b]pyrazine-8-carboxamide], in assay [1], the EC50 is not below 10 µM and the Emax worked out at 30%. In assay [2], the EC50 is more than 10 µM and the Emax was less than 5%.

For `Cc1cncc(-c2cc(F)c(Cn3cc(C(=O)N[C@H]4CCC[C@@H]4O)c4ncccc4c3=O)c(F)c2)c1` [Compound A44, 6-(2,6-difluoro-4-(5-methylpyridin-3-yl)benzyl)-N-((1S,2S)-2-hydroxycyclopentyl)-5-oxo-5,6-dihydro-1,6-naphthyridine-8-carboxamide], in assay [1], the EC50 was not below 10 µM and the Emax is 26%. In assay [2], the 50% effective concentration (EC50) was more than 10 µM and the maximal response (Emax) was less than 5%.

Turning to `Cn1cc(-c2ccc(Cn3cc(C(=O)N[C@H]4CCOC[C@@H]4O)c4sccc4c3=O)c(F)c2)cn1` [Compound D29, 5-(2-fluoro-4-(1-methyl-1H-pyrazol-4-yl)benzyl)-N-((3R,4S)-3-hydroxytetrahydro-2H-pyran-4-yl)-4-oxo-4,5-dihydrothieno[3,2-c]pyridine-7-carboxamide], in assay [1], the EC50 is more than 10 µM and the maximal response (Emax) came to 37%. For the same compound, in assay [2], the concentration giving a half-maximal response (EC50) is more than 10 µM and the maximal response (Emax) is less than 5%.

In the case of `Cn1cc(-c2ccc(Cn3cc(C(=O)N[C@H]4CCCCC[C@@H]4O)c4ncccc4c3=O)cn2)cn1` [Compound A18, N-((1S,2S)-2-hydroxycycloheptyl)-6-((6-(1-methyl-1H-pyrazol-4-yl)pyridin-3-yl)methyl)-5-oxo-5,6-dihydro-1,6-naphthyridine-8-carboxamide], in assay [1], the EC50 is 1.66 µM and the Emax came to 60%. In assay [2], the EC50 was more than 10 µM and the Emax was less than 5%.

Take `Cn1cc2c(-c3cc(F)c(Cn4cc(C(=O)NC5CC6(COC6)C5)c5nccnc5c4=O)c(F)c3)cccc2n1` [Compound A71, 6-(2,6-difluoro-4-(2-methyl-2H-indazol-4-yl)benzyl)-5-oxo-N-(2-oxaspiro[3.3]heptan-6-yl)-5,6-dihydropyrido[3,4-b]pyrazine-8-carboxamide]: in assay [1], the EC50 came to 3.1 µM and the Emax was found to be 57%. Further, in assay [2], the 50% effective concentration (EC50) is more than 10 µM and the maximal response (Emax) is less than 5%.

Regarding `Cc1cn2c(=O)n(Cc3ccc(-c4cnn(C)c4)cc3F)cc(C(=O)N[C@H]3CCCC[C@@H]3O)c2n1` [Compound B24, 6-(2-fluoro-4-(1-methyl-1H-pyrazol-4-yl)benzyl)-N-((1S,2S)-2-hydroxycyclohexyl)-2-methyl-5-oxo-5,6-dihydroimidazo[1,2-c]pyrimidine-8-carboxamide], in assay [1], the concentration for a half-maximal effect (EC50) was not below 10 µM and the maximum response (Emax) was determined as 41%. In assay [2], the EC50 is more than 10 µM and the maximal effect (Emax) was less than 5%.

Take `Cn1cc2c(-c3cc(F)c(Cn4cc(C(=O)NCC(O)C(F)(F)F)c5nccnc5c4=O)c(F)c3)cccc2n1` (centres unmarked) [Compound A74, 6-(2,6-difluoro-4-(2-methyl-2H-indazol-4-yl)benzyl)-5-oxo-N-(3,3,3-trifluoro-2-hydroxypropyl)-5,6-dihydropyrido[3,4-b]pyrazine-8-carboxamide]: in assay [1], the EC50 came out at 3.81 µM and the Emax turned out to be 53%. In assay [2], the EC50 is more than 10 µM and the Emax is less than 5%.

Regarding `Cc1cncc(-c2cc(F)c(Cn3cc(C(=O)N[C@H]4CCOC[C@@H]4O)c4ncccc4c3=O)c(F)c2)c1` [Compound A33, 6-(2,6-difluoro-4-(5-methylpyridin-3-yl)benzyl)-N-((3R,4S)-3-hydroxytetrahydro-2H-pyran-4-yl)-5-oxo-5,6-dihydro-1,6-naphthyridine-8-carboxamide], in assay [1], the 50% effective concentration (EC50) turned out to be 0.86 µM and the Emax is 64%. In assay [2], the half-maximal effective concentration (EC50) amounted to 3.22 µM and the maximal effect (Emax) came to 13%.

These data come from patent US20220041606A1, “POSITIVE ALLOSTERIC MODULATORS OF THE MUSCARINIC ACETYLCHOLINE RECEPTOR M1” (Vanderbilt University, priority 2020, published 2022).
